Results from EP1952812A1, “Drug for treating thalessemia, falciform anemia and all other forms of anemia treatable therewith” (Universita' Degli Studi di Ferrara, priority 2007, dated 2008).

Assays:
K562 human cell line = test: Erythroid differentiation of K562 cells (benzidine positivity), with or without UVA photoactivation; format: cell-based; details: percentage of K562 cells positive to benzidine
Method: The evaluation of the biological activity of the treatment with psoralens photoactivated with UVA light was conducted by examining the capacity of these molecules to modulate the gamma-globin gene expression in the K562 human cell line, which is able to differentiate in the erythroid sense by expressing the gamma-globin genes if subjected to treatment with biological response modifiers suitable for the purpose (Lampronti I., Bianchi N Borgatti M., Fibach E.,Prus E.,Gambari R. Eur J Haematology 71 189-195 2003, Bianchi N, Ongaro F, Chiarabelli C, Gualandi L, Mischiati C, Bergamini P, Gambari R. Biochem Pharmacol, 60:31-40, 2000;Bianchi N, Osti F, Rutigliano C, Ginanni Corradini F, Borsetti E, Tomassetti M, Mischiati C, Feriotto G and Gambari R, British Journal of Haematology, 104:258-263, 1999).
The differentiation level was evaluated by analyzing the cell positivity to benzidine (Lampronti I., Bianchi N., Borgatti M., Fibach E., Prus E., Gambari R. Eur J Haematology 71 189-195 2003,).
The gamma-globin coding gene expression was evaluated by quantitative RT-PCR (reverse transcriptase PCR) (Lampronti I., Bianchi N Borgatti M., Fibach E.,Prus E.,Gambari R. Eur J Haematology. 71 189-195 2003) Some of the data obtained are reported in Table 1. As can be easily noted, treatment with different furocoumarin derivatives photoactivated with UVA light are able to induce an increase in the percentage of cells positive to benzidine (60-85% of the treated cells, compared with 5-17% of the K562 control cells treated with furocoumarin derivatives in the absence of UVA light). […] In the control not treated with furocoumarin derivatives, erythrolid differentiation is low (4-6%) both in the absence and in the presence of UVA light.

gamma-globin mRNA = gamma-globin mRNA production by quantitative RT-PCR in human erythroid precursors isolated from peripheral blood (two-step Fibach culture); format: cell-based; details: for gamma-globulin mRNA: ratio of mRNA content in UVA-treated cells to that of UVA-untreated cells, cells treated for 6 days
From the text: To verify if treatment with 8-meethoxypsoralen and trimethylangelicin photoactivated with UVA light was able to stimulate mRNA production for gamma-globin in human erythroid precursors isolated from peripheral blood, the method used was that described by Fibach et al. (Fibach E. Hemoglobin, 22: 445-458, 1998; Fibach E, Burke KP, Schechter AN, Noguchi CT & Rodgers GP. Blood, 81: 1630-1635, 1993). This method comprises two steps: the cells isolated from peripheral blood of a healthy subject or affected with a hemopoietic pathology, such as falciform anemia or beta-thalessemia, are seeded in culture medium to which 10% of conditioned medium deriving from the bladder carcinoma cell line 5637 is added. The second step consists of cultivating the isolated cells in a suitable culture medium to which erythropoietin hormone, 30% of bovine fetal serum, 2-mercapto-ethanol, albumin, glutamine and desametasone are added to enable proliferation and maturing of erythroid stem cells. In this step the cells can be treated with potential HbF inducers.
The gamma-globin mRNA production level is much higher than that encountered using hydroxyurea as inducer (Fibach E. Hemoglobin, 22: 445-458, 1998; Fibach E, Burke KP, Schechter AN, Noguchi CT & Rodgers GP. Blood, 81: 1630-1635, 1993).

[1] = Homo sapiens, light or radiation study, 144 h, read-out: gamma-globin mRNA

Row | SMILES | Erythroid differentiation with UVA (%) (K562 human cell line; concentration 0.25 µM) | Erythroid differentiation without UVA (%) (K562 human cell line; concentration 0.25 µM) | fold induction at 0.25 µM (gamma-globin mRNA; [1]) | fold induction at 1 µM (gamma-globin mRNA; [1]) | Erythroid differentiation with UVA (%) (K562 human cell line; concentration 0.50 µM) | Erythroid differentiation without UVA (%) (K562 human cell line; concentration 0.50 µM) | gamma-globulin mRNA (gamma-globin mRNA; concentration 0.10 µM) | gamma-globulin mRNA (gamma-globin mRNA; concentration 0.50 µM)
1 | COc1c2occc2cc2ccc(=O)oc12 [Compound 8-MOP, 8-methoxypsoralen, reference compound] | 65% | 17% | 2.76 | 18.5 |  |  |  | 
2 | O=c1ccc2ccc3occc3c2o1 [angelicin] |  |  |  |  | 60% | 6% |  | 
3 | Cc1cc(=O)oc2c1cc(C)c1occ(C)c12 [trimethylangelicin] |  |  |  |  | 85% | 5% | 9.56 | 12.86
